Data reported in the kinase profiling compilation of Christmann-Franck et al. (2016).

Key:
Assay in all cases: KINOMEscan competition binding
Conditions in all cases: compound 10.0 µM
AAK1 (human) = AAK1 (human) (UniProt Q2M2I8)
ACVR2B (human) = ACVR2B (human) (UniProt Q13705)
AKT2 (human) = AKT2 (human) (UniProt P31751)
CAMK1D (human) = CAMK1D (human) (UniProt Q8IU85)
CDK14 (human) = CDK14 (human) (UniProt O94921)
CDK16 (human) = CDK16 (human) (UniProt Q00536)
CDK18 (human) = CDK18 (human) (UniProt Q07002)
CDK2 (human) = CDK2 (human) (UniProt P24941)
CLK1 (human) = CLK1 (human) (UniProt P49759)
CLK4 (human) = CLK4 (human) (UniProt Q9HAZ1)
CSNK2A2 (human) = CSNK2A2 (human) (UniProt P19784)
CSNK2A2 (human), sequence (P19784 whole entry, looked up): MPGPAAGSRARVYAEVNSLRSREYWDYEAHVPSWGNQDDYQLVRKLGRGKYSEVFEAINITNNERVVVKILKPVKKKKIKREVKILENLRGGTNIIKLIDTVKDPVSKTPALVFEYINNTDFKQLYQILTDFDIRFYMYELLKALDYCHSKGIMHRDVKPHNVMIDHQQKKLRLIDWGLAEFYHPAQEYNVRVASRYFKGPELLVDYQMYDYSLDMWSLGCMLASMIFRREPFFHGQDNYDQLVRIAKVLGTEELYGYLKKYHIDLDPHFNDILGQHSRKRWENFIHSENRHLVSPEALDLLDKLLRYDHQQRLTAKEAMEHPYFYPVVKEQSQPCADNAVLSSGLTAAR

DAPK2 (human) = DAPK2 (human) (UniProt Q9UIK4)
DAPK3 (human) = DAPK3 (human) (UniProt O43293)
DAPK3 (human), sequence (O43293 whole entry, looked up): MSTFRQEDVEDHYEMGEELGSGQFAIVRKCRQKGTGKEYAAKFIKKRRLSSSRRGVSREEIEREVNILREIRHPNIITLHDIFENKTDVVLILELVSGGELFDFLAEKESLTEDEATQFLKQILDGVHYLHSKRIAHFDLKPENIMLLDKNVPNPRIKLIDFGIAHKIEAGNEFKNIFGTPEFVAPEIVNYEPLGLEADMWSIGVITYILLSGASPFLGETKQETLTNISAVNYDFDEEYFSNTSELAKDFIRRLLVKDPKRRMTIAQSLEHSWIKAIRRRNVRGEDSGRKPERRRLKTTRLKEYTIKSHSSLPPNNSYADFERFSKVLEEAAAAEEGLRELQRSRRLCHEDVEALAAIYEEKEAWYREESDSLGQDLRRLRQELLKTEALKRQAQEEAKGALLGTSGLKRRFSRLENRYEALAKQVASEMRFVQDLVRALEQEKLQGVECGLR

DCLK2 (human) = DCLK2 (human) (UniProt Q8N568)
DYRK1B (human) = DYRK1B (human) (UniProt Q9Y463)
[1] = tested on: EGFR (human), P00533 [747-751 del / S ins]
[2] = tested on: EGFR (human), P00533 [G719C; 746-750 del]
[3] = tested on: EIF2AK4 KD2 (human), Q9P2K8 [S808G]
EPHA7 (human) = EPHA7 (human) (UniProt Q15375)
[4] = tested on: KIT (human), P10721 [V559D/V654A]
LATS2 (human) = LATS2 (human) (UniProt Q9NRM7)
LYN (human) = LYN (human) (UniProt P07948)
MAP2K4 (human) = MAP2K4 (human) (UniProt P45985)
MAP3K5 (human) = MAP3K5 (human) (UniProt Q99683)
MELK (human) = MELK (human) (UniProt Q14680)
MELK (human), sequence (Q14680 whole entry, looked up): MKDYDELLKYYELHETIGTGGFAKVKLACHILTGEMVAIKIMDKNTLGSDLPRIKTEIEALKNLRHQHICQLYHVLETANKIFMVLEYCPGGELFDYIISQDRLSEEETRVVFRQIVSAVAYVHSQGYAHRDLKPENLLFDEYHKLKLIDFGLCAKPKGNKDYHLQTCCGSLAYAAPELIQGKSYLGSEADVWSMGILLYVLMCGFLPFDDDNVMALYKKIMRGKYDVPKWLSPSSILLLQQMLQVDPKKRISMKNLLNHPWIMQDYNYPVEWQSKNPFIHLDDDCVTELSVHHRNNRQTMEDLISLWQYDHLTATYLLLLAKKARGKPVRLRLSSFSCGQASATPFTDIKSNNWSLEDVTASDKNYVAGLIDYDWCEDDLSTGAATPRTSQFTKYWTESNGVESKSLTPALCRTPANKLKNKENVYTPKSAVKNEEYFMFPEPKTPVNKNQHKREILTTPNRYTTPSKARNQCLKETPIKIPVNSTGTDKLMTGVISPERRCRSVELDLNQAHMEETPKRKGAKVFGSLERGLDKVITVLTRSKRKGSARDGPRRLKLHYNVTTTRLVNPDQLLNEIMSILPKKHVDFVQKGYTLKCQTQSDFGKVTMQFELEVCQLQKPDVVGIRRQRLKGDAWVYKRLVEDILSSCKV

MET (human) = MET (human) (UniProt P08581)
MET (human), sequence (P08581 whole entry, looked up): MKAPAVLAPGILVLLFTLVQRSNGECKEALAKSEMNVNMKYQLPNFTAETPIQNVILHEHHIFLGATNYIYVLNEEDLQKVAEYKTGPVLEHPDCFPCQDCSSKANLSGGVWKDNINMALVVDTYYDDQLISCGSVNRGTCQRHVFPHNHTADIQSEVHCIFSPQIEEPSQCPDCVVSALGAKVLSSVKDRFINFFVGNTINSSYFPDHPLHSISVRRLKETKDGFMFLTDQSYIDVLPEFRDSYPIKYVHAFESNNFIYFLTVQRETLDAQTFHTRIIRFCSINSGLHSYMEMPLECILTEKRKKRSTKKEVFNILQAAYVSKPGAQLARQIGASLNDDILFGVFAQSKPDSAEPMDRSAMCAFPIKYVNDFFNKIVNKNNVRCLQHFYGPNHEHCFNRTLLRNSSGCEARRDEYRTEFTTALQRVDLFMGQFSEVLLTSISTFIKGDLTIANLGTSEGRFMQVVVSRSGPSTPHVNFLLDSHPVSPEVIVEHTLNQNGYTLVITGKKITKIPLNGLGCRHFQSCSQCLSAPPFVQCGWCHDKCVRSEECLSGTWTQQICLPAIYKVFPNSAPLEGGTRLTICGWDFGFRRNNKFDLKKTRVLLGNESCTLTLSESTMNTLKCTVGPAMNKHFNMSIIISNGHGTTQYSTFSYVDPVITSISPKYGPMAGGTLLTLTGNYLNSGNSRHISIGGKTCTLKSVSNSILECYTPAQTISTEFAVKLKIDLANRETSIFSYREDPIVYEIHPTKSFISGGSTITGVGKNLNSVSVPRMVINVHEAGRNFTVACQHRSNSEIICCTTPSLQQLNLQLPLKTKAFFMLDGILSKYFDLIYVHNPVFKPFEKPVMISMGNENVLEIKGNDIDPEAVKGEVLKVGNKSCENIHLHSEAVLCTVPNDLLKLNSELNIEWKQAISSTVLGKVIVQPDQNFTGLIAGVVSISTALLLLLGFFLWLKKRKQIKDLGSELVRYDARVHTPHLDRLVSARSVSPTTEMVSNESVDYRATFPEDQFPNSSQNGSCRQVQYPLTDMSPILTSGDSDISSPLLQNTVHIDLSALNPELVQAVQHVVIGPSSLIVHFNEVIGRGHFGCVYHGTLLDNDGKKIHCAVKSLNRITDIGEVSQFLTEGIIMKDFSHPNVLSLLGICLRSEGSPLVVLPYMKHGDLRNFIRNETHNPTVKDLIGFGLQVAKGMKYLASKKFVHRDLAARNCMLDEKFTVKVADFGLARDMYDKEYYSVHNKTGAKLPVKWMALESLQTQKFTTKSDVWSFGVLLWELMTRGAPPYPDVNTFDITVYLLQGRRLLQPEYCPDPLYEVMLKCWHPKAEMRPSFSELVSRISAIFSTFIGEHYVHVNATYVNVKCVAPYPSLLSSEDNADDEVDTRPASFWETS

NLK (human) = NLK (human) (UniProt Q9UBE8)
NLK (human), sequence (Q9UBE8 whole entry, looked up): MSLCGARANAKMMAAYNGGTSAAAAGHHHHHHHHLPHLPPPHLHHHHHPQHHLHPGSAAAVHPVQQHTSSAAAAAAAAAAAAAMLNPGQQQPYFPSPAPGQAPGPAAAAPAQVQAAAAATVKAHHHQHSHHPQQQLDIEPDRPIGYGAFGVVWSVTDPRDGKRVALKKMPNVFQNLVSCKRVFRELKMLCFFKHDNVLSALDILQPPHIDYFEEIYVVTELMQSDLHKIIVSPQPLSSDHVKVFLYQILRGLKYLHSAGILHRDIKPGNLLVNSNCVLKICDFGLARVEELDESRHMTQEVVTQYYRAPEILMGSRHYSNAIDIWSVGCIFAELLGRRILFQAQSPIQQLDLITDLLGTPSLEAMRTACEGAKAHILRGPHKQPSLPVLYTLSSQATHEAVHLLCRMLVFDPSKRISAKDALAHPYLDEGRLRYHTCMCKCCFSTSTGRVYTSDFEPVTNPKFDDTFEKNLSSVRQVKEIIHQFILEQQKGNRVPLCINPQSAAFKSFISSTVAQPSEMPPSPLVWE

[5] = tested on: PIK3CA (human), P42336 [E545K]
PIM3 (human) = PIM3 (human) (UniProt Q86V86)
PRKCH (human) = PRKCH (human) (UniProt P24723)
PRKCQ (human) = PRKCQ (human) (UniProt Q04759)
RAF1 (human) = RAF1 (human) (UniProt P04049)
RPS6KA1 KD1 (human) = RPS6KA1 KD1 (human) (UniProt Q15418)
SGK110 (human) = SGK110 (human) (UniProt P0C264)
SGK110 (human), sequence (P0C264 whole entry, looked up): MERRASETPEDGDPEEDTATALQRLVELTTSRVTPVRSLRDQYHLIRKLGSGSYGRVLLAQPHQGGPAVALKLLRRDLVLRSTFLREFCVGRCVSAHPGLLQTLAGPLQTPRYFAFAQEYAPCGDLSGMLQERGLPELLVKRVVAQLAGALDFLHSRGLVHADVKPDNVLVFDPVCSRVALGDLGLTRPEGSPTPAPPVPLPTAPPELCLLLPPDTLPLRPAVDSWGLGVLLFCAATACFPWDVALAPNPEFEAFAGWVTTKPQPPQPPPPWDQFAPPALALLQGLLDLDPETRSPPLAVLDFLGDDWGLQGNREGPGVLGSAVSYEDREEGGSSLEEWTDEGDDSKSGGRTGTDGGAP

SIK2 (human) = SIK2 (human) (UniProt Q9H0K1)
STK16 (human) = STK16 (human) (UniProt O75716)
TAOK1 (human) = TAOK1 (human) (UniProt Q7L7X3)
TEC (human) = TEC (human) (UniProt P42680)
TEK (human) = TEK (human) (UniProt Q02763)
TLK1 (human) = TLK1 (human) (UniProt Q9UKI8)
TLK1 (human), sequence (Q9UKI8 whole entry, looked up): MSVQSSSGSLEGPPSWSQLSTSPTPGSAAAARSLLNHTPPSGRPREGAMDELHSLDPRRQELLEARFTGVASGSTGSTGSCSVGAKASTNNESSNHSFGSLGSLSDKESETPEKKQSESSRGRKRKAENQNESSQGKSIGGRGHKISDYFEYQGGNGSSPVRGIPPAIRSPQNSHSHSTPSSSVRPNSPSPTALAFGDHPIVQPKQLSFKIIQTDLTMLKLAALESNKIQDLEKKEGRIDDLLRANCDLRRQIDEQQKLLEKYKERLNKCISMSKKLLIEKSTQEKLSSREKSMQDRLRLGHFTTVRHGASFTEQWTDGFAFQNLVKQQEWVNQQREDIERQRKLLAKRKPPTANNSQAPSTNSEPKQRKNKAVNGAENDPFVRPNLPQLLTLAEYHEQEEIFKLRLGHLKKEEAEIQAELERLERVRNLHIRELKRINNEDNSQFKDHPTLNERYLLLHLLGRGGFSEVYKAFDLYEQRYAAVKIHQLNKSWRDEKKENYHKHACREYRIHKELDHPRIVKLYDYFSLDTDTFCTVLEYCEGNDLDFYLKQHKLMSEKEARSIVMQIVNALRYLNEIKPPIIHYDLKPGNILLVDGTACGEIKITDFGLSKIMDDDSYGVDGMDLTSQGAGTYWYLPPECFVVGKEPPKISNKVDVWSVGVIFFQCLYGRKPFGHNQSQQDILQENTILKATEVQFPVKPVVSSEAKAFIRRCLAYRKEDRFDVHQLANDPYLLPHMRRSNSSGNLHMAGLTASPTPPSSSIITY

TNIK (human) = TNIK (human) (UniProt Q9UKE5)
ULK3 (human) = ULK3 (human) (UniProt Q6PHR2)

AKT2 (human), sequence (P31751 whole entry, looked up): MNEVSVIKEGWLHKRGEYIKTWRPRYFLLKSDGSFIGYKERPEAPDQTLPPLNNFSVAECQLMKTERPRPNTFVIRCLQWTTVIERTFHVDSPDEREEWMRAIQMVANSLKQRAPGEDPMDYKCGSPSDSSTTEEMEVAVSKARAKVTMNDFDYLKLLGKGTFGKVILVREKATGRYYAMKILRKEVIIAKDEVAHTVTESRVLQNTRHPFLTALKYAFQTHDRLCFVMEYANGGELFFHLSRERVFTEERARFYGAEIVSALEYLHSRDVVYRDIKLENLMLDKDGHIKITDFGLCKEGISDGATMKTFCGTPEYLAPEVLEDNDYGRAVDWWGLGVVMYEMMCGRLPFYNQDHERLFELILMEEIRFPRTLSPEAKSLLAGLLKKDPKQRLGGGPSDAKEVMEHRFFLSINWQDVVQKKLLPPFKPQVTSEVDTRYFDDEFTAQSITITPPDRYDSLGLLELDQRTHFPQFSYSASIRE

`CN1C(=O)c2ccccc2N(C)c2nc(NS(=O)(=O)c3ccc(N)cc3)ncc21` gave a kinase still bound, per cent of control (AAK1 (human)) of 100%, a kinase still bound, per cent of control (ACVR2B (human)) of 100% and a kinase still bound, per cent of control (AKT2 (human)) of 100%. For the same molecule, the kinase still bound, per cent of control (CAMK1D (human)) was 100%, the kinase still bound, per cent of control (CDK14 (human)) was 100% and the kinase still bound, per cent of control (CDK16 (human)) was 100%. It also gave a kinase still bound, per cent of control (CDK18 (human)) of 100%, a kinase still bound, per cent of control (CDK2 (human)) of 100% and a kinase still bound, per cent of control (CLK1 (human)) of 100%. For the same molecule, the kinase still bound, per cent of control (CLK4 (human)) was 100%, the kinase still bound, per cent of control (CSNK2A2 (human)) was 76% and the kinase still bound, per cent of control (DAPK2 (human)) was 94%. For the same molecule, the kinase still bound, per cent of control (DAPK3 (human)) was 95%, the kinase still bound, per cent of control (DCLK2 (human)) was 70% and the kinase still bound, per cent of control (DYRK1B (human)) was 100%. It also gave a kinase still bound, per cent of control [1] of 99%, a kinase still bound, per cent of control [2] of 100% and a kinase still bound, per cent of control [3] of 100%. For the same molecule, the kinase still bound, per cent of control (EPHA7 (human)) was 100%, the kinase still bound, per cent of control [4] was 100% and the kinase still bound, per cent of control (LATS2 (human)) was 100%. The kinase still bound, per cent of control (LYN (human)) was 100%, the kinase still bound, per cent of control (MAP2K4 (human)) was 61% and the kinase still bound, per cent of control (MAP3K5 (human)) was 100%. For the same molecule, the kinase still bound, per cent of control (MELK (human)) was 100%, the kinase still bound, per cent of control (MET (human)) was 100% and the kinase still bound, per cent of control (NLK (human)) was 100%. The kinase still bound, per cent of control [5] was 91%, the kinase still bound, per cent of control (PIM3 (human)) was 100% and the kinase still bound, per cent of control (PRKCH (human)) was 86%. For the same molecule, the kinase still bound, per cent of control (PRKCQ (human)) was 100%, the kinase still bound, per cent of control (RAF1 (human)) was 100% and the kinase still bound, per cent of control (RPS6KA1 KD1 (human)) was 100%. It also gave a kinase still bound, per cent of control (SGK110 (human)) of 100%, a kinase still bound, per cent of control (SIK2 (human)) of 89% and a kinase still bound, per cent of control (STK16 (human)) of 100%. For the same molecule, the kinase still bound, per cent of control (TAOK1 (human)) was 60%, the kinase still bound, per cent of control (TEC (human)) was 100% and the kinase still bound, per cent of control (TEK (human)) was 97%. The kinase still bound, per cent of control (TLK1 (human)) was 100%, the kinase still bound, per cent of control (TNIK (human)) was 100% and the kinase still bound, per cent of control (ULK3 (human)) was 100%.

`CN1C(=O)c2ccccc2N(C)c2nc(Nc3ccc(N4CCC(O)CC4)cc3)ncc21` was tested, and the kinase still bound, per cent of control (AAK1 (human)) was 62%, the kinase still bound, per cent of control (ACVR2B (human)) was 45% and the kinase still bound, per cent of control (AKT2 (human)) was 100%. It also gave a kinase still bound, per cent of control (CAMK1D (human)) of 98%, a kinase still bound, per cent of control (CDK14 (human)) of 100% and a kinase still bound, per cent of control (CDK16 (human)) of 100%. It also gave a kinase still bound, per cent of control (CDK18 (human)) of 100%, a kinase still bound, per cent of control (CDK2 (human)) of 91% and a kinase still bound, per cent of control (CLK1 (human)) of 75%. For the same molecule, the kinase still bound, per cent of control (CLK4 (human)) was 100%, the kinase still bound, per cent of control (CSNK2A2 (human)) was 58% and the kinase still bound, per cent of control (DAPK2 (human)) was 100%. For the same molecule, the kinase still bound, per cent of control (DAPK3 (human)) was 100%, the kinase still bound, per cent of control (DCLK2 (human)) was 0.6% and the kinase still bound, per cent of control (DYRK1B (human)) was 100%. For the same molecule, the kinase still bound, per cent of control [1] was 100%, the kinase still bound, per cent of control [2] was 100% and the kinase still bound, per cent of control [3] was 98%. The kinase still bound, per cent of control (EPHA7 (human)) was 100%, the kinase still bound, per cent of control [4] was 58% and the kinase still bound, per cent of control (LATS2 (human)) was 100%. For the same molecule, the kinase still bound, per cent of control (LYN (human)) was 80%, the kinase still bound, per cent of control (MAP2K4 (human)) was 74% and the kinase still bound, per cent of control (MAP3K5 (human)) was 100%. For the same molecule, the kinase still bound, per cent of control (MELK (human)) was 100%, the kinase still bound, per cent of control (MET (human)) was 77% and the kinase still bound, per cent of control (NLK (human)) was 74%. The kinase still bound, per cent of control [5] was 100%, the kinase still bound, per cent of control (PIM3 (human)) was 100% and the kinase still bound, per cent of control (PRKCH (human)) was 100%. For the same molecule, the kinase still bound, per cent of control (PRKCQ (human)) was 92%, the kinase still bound, per cent of control (RAF1 (human)) was 100% and the kinase still bound, per cent of control (RPS6KA1 KD1 (human)) was 66%. For the same molecule, the kinase still bound, per cent of control (SGK110 (human)) was 5.4%, the kinase still bound, per cent of control (SIK2 (human)) was 61% and the kinase still bound, per cent of control (STK16 (human)) was 59%. The kinase still bound, per cent of control (TAOK1 (human)) was 0.9%, the kinase still bound, per cent of control (TEC (human)) was 100% and the kinase still bound, per cent of control (TEK (human)) was 72%. For the same molecule, the kinase still bound, per cent of control (TLK1 (human)) was 69%, the kinase still bound, per cent of control (TNIK (human)) was 83% and the kinase still bound, per cent of control (ULK3 (human)) was 77%.
